Source: patent US20250145603A1, “CRYSTAL FORMS OF AN ANTI-RSV AGENT” (Enanta Pharmaceuticals, Inc., priority 2023, published 2025)
In brackets after ≈: the same amount, converted by molar mass. Entries after “also recorded” stand apart in the source; their conditions may differ.

Tests used:
[1] = Hygroscopicity by DVS (Dynamic Vapor Sorption); assay type: physicochemical
[2] = Physical stability and conversion of solid forms (polymorph screen)
[3] = Solubility of Form A in water; assay type: physicochemical
[4] = Solubility of Form A in organic solvents; assay type: physicochemical

With O=C1Nc2ccccc2C(c2ccccc2)=N[C@@H]1Nc1nnc(-c2ncc(C(F)(F)F)cc2N2CCOCC2)o1 [Amorphous] the hygroscopicity [1] was “Appeared non-hygroscopic” and the “conversion to another solid form” value [2] was “Crystallizes to A”.

With O=C1Nc2ccccc2C(c2ccccc2)=N[C@@H]1Nc1nnc(-c2ncc(C(F)(F)F)cc2N2CCOCC2)o1 [Form A] the solubility ([3]; aqueous buffer, from pH 4-8) was ~2 µg/mL (≈ 3.64 µM), the solubility ([3]; simulated gastric fluid, at pH 1) was 13.3 µg/mL (≈ 24.2 µM) and the “solubility in organic solvents” value ([4]; alcohols, ethyl acetate, acetonitrile) was “relatively poor solubility”. The “solubility in organic solvents” value ([4]; dichloromethane, 1,4-dioxane, tetrahydrofuran, acetone) was “highly soluble”, the hygroscopicity [1] was “not hygroscopic; also recorded: Anhydrous/unsolvated, non-hygroscopic” and the “weight gain during adsorption” value ([1]; DVS, adsorption to 95% RH) was 0.1 wt %. The “moisture loss on desorption” value ([1]; DVS, desorption to 5% RH) was “losing all of the gained moisture”.

With O=C1Nc2ccccc2C(c2ccccc2)=N[C@@H]1Nc1nnc(-c2ncc(C(F)(F)F)cc2N2CCOCC2)o1 [Form D] the “conversion to another solid form” value [2] was “converts to Form F upon air drying”.

With O=C1Nc2ccccc2C(c2ccccc2)=N[C@@H]1Nc1nnc(-c2ncc(C(F)(F)F)cc2N2CCOCC2)o1 [Form F] the “conversion to another solid form” value [2] was “Converts to G in ethyl acetate”.

With O=C1Nc2ccccc2C(c2ccccc2)=N[C@@H]1Nc1nnc(-c2ncc(C(F)(F)F)cc2N2CCOCC2)o1 [Form G] the “physical stability of solid form” value [2] was “physically stable at ambient temperature”.

In the case of O=C1Nc2ccccc2C(c2ccccc2)=N[C@@H]1Nc1nnc(-c2ncc(C(F)(F)F)cc2N2CCOCC2)o1 [Material C], the “conversion to another solid form” value [2] is reported as “desolvate readily to Form A; also recorded: Likely converts to A on drying”.
